Assay results as given in patent US20250205312A1, “Orally Available Albenatide” (AlbuNext, LLC, priority 2023, published 2025).
Several values for one entry are separate records, joined by “and”; a condition that tells them apart may be missing. Equal values may be shown once.

Test system: db/db mice
Assay: Pharmacodynamics study: blood glucose level-time profiles after single treatment
Format: in vivo
Details: SC 0.8 mg/kg
Source text: For pharmacodynamics studies, db/db mice were randomly divided into 5 groups (n=3). The test article preparation and dosing procedure followed the same way as described in PK study above. The study protocol is described in Table 6.

## CJC-1134 [CJC-1134-SC]
db/db mice (n=3)
  Blood Glucose AUC, Mean: 364.1 mmol·h/L
db/db mice (n=3), 0 h after fasting
  Blood Glucose Level, Mean: 15.2 mmol/L
db/db mice (n=3), 0.25 h
  Blood Glucose Level, Mean: 22.4 mmol/L
db/db mice (n=3), 0.5 h
  Blood Glucose Level, Mean: 19.6 mmol/L
db/db mice (n=3), 1 h
  Blood Glucose Level, Mean: 14.6 mmol/L
db/db mice (n=3), 3 h
  Blood Glucose Level, Mean: 13.5 mmol/L
db/db mice (n=3), 6 h
  Blood Glucose Level, Mean: 16.3 mmol/L
db/db mice (n=3), 8 h
  Blood Glucose Level, Mean: 13.0 mmol/L
db/db mice (n=3), 24 h
  Blood Glucose Level, Mean: 17.4 mmol/L
db/db mice, 0 h after fasting, individual mice, 0.8 mg/kg
  Blood Glucose Level: 8.7 mmol/L and 16.4 mmol/L and 20.6 mmol/L
db/db mice, 0.25 h, individual mice, 0.8 mg/kg
  Blood Glucose Level: 20.5 mmol/L and 21.2 mmol/L and 25.6 mmol/L
db/db mice, 0.5 h, individual mice, 0.8 mg/kg
  Blood Glucose Level: 18.8 mmol/L and 21.0 mmol/L and 19.0 mmol/L
db/db mice, 1 h, individual mice, 0.8 mg/kg
  Blood Glucose Level: 11.5 mmol/L and 16.5 mmol/L and 15.9 mmol/L
db/db mice, 3 h, individual mice, 0.8 mg/kg
  Blood Glucose Level: 10.4 mmol/L and 14.0 mmol/L and 16.1 mmol/L
db/db mice, 6 h, individual mice, 0.8 mg/kg
  Blood Glucose Level: 12.7 mmol/L and 18.7 mmol/L and 17.5 mmol/L
db/db mice, 8 h, individual mice, 0.8 mg/kg
  Blood Glucose Level: 11.3 mmol/L and 16.3 mmol/L and 11.4 mmol/L
db/db mice, 24 h, individual mice, 0.8 mg/kg
  Blood Glucose Level: 17.0 mmol/L and 16.9 mmol/L and 18.4 mmol/L
db/db mice, individual mice, 0.8 mg/kg
  Blood Glucose AUC: 323.1 mmol·h/L and 399.5 mmol·h/L and 369.8 mmol·h/L
